Test: Uptake of L-carnitine by patients from oral dosage forms, measured by serum plasma levels
Assay type: in vivo
Text: Softgel capsules provide improved delivery of the components of the composition of the present invention compared to alternative dosage forms. For example, the uptake of L-carnitine by patients from tablets (e.g., measured by serum plasma levels) is about 10-14%; the uptake of L-carnitine from standard hard capsules is about 15-20%; whereas the uptake of L-carnitine from softgel capsules is about 100%.

## C[N+](C)(C)C[C@H](O)CC(=O)[O-] [L-carnitine]
From softgel capsules
  uptake of L-carnitine: about 100%
From standard hard capsules
  uptake of L-carnitine: 15-20%
From tablets
  uptake of L-carnitine: 10-14%

Source: patent US20070243211A1, “Compositions for regulating metabolic disorders and methods of use thereof” (priority 2005, published 2007)
